Experimental data as given in patent publication US6875761B2 (Eisai Co., Ltd., priority 1997, dated 2005).
Where a name gives a salt, the structure may show the parent alone.

| melting point | Structure (SMILES) |
| --- | --- |
| 154 to 156 °C | CCNS(=O)(=O)Cc1ccc(-c2cc3ccccc3c(N3CCN(CC)CC3)n2)cc1 (as salt: hydrochloride) [Example 80, 3-(4-Ethylaminosulfonylmethylphenyl)-1-(4-Ethylpiperazin-1-Yl)Isoquinoline Hydrochloride] |
| 148 to 149 °C | CCN1CCN(c2nc(-c3ccc(C(=O)NC4CCCC4)cc3)cc3ccsc23)CC1 (as salt: hydrochloride) [Example 453, 7-(4-ethylpiperazin-1-yl)-5-[4-(N-cyclopentylcarbamoyl)phenyl]thieno[2,3-c]pyridine dihydrochloride] |
| 101 to 102 °C | CCN1CCN(c2nc(COc3ccc(OC)cc3)cc3ccccc23)CC1 (as salt: hydrochloride) [Example 424, 1-(4-ethylpiperazin-1-yl)-3-(4-methoxyphenoxymethyl)isoquinoline Hydrochloride] |
| 88 to 90 °C | CCN1CCN(c2nc(/C=C/c3ccc(N4CCOCC4)nn3)cc3ccccc23)CC1 (as salt: oxalate) [Example 214, 3-{(E)-2-[3-(4-Morpholinyl)Pyridazin-6-Yl]Ethenyl}-1-(4-Ethylpiperazin-1-Yl)Isoquinoline Oxalate] |
| 124 to 125 °C | CCN1CCN(c2nc(-c3ccc(O[C@H](C)CO)cc3)cc3sccc23)CC1 (stereo in doubt) (as salt: hydrochloride) [Example 463, 4-(4-ethylpiperazin-1-yl)-6-[4-(2-hydroxy-1-methylethoxy)phenyl]thieno[3,2-c]pyridine dihydrochloride] |
| 163 to 165 °C | CCCS(=O)(=O)Nc1ccc(-c2cc3ccccc3c(N3CCN(CC)CC3)n2)cc1 (as salt: hydrochloride) [Example 72, 3-(4-Propylsulfonylaminophenyl)-1-(4-Ethylpiperazin-1-Yl)Isoquinoline Hydrochloride] |
| 170 to 172 °C | CCN1CCN(c2nc(-c3ccc(S(=O)(=O)NC)cc3)cc3ccccc23)CC1 (as salt: hydrochloride) [Example 361, 1-(4-ethylpiperazin-1-yl)-3-[4-(N-methylsulfamoyl)phenyl]isoquinoline dihydrochloride] |
| 204 to 205 °C | CCN1CCN(c2nc(-c3ccc(CCCO)nc3)cc3ccsc23)CC1 (as salt: hydrochloride) [Example 429, 7-(4-ethylpiperazin-1yl)-5-[2-(3-hydroxypropyl)pyridin-5-yl]thieno[2,3-c]pyridine hydrochloride] |
| 148 to 150 °C | CCN1CCN(c2nc(-c3ccc(C4CCOCC4)cc3)cc3ccccc23)CC1 (as salt: hydrochloride) [Example 83, 3-[4-(Tetrahydropyran-4-yl)phenyl]-1-(4-ethylpiperazin-1-yl)isoquinoline Hydrochloride] |
| 127 to 132 °C | CCN1CCN(c2nc(-c3ccc(OCC(C)(C)O)cc3)cc3cccnc23)CC1 (as salt: hydrochloride) [Example 250, 8-(1-ethylpiperazin-4-yl)-6-[4-(2-hydroxy-2-methylpropoxy)phenyl]-1,7-naphthyridine Dihydrochloride] |
| 112 to 113 °C | CCN1CCN(c2nc(-c3ccc(CCCO)cc3)cc3ccsc23)CC1 (as salt: hydrochloride) [Example 432, 7-(4-ethylpiperazin-1-yl)-5-[4-(3-hydroxypropyl)phenyl]thieno[2,3-c]pyridine hydrochloride] |
| 157 to 158 °C (dec.) | CCN1CCN(c2nc(-c3ccc([C@H]4CC[C@H](O)CC4)cc3)cc3ccccc23)CC1 (as salt: hydrochloride) [Example 398, 1-(4-Ethylpiperazin-1-yl)-3-[4-(trans-4-Hydroxycyclohexyl)Phenyl]Isoquinoline Dihydrochloride] |
| 125 to 126 °C | CCN1CCN(c2nc(-c3ccc(CC(C)=O)cc3)cc3ccccc23)CC1 (as salt: hydrochloride) [Example 375, 1-(4-ethylpiperazin-1-yl)-3-[4-(2-oxopropyl)phenyl]isoquinoline dihydrochloride] |
| 109 to 114 °C | CCC1CCN(c2nc(-c3ccc(OC)cc3)cc3ccccc23)CC1.Cl |
| 223 to 238 °C | COc1ccc(-c2cc3ccccc3c(N3CCC(N4CCCCC4)CC3)n2)cc1 (as salt: hydrochloride) [Example 325, 1-[4-(piperidin-1-yl)piperidine-1-yl]-3-(4-methoxyphenyl)isoquinoline dihydrohcloride] |
| 135.5 to 136 °C | CCN1CCN(c2nc(-c3ccc(C(C)O)cc3)cc3ccccc23)CC1 (stereo not drawn) (as salt: hydrochloride) [Example 348, 1-(4-ethylpiperazin-1-yl)-3-[4-(1-hydroxyethyl)phenyl]isoquinoline dihydrochloride] |

| melting point | Structure (SMILES) |
| --- | --- |
| 129 to 134 °C | CCN1CCN(c2nc(-c3ccc(OCC(C)(C)O)cc3)cc3ccccc23)CC1 (as salt: hydrochloride) [Example 309, 1-(1-ethylpiperazin-4-yl)-3-[4-(2-hydroxy-2-methylpropoxy)phenyl]isoquinoline dihydrochloride] |
| 110 to 112 °C | CCN1CCN(c2nc(C3CCCc4ccc(OC)cc43)cc3ccccc23)CC1 (stereo not drawn) (as salt: oxalate) |
| 160 to 165 °C | CCN1CCN(c2nc(-c3ccc(C(=O)NC4CCCCC4)cc3)cc3ccsc23)CC1 (as salt: hydrochloride) [Example 273, dihydrochloride] |
| 150 to 153 °C | CCN1CCN(c2nc(C3=CCCc4ccc(OC)cc43)cc3ccccc23)CC1 (as salt: oxalate) |
| 112 to 114 °C | CCN1CCN(c2nc(C3=CCCc4cc(OC)ccc43)cc3ccccc23)CC1 (as salt: oxalate) [Example 117, 3-(7-Methoxy-1,2-dihydronaphthalen-4-yl)-1-(4-ethylpiperazin-1-yl)isoquinoline Oxalate] |
| 228 °C (dec.) | CCN1CCN(c2nc(-c3ccc(CO)c(F)c3)cc3ccccc23)CC1 (as salt: hydrochloride) [Example 28, 1-(4-ethylpiperazin-1-yl)-3-[4-(4-hydroxymethyl-3-fluoro)phenyl]isoquinoline hydrochloride] |
| 158 to 160 °C | CCN1CCN(c2nc(-c3ccccc3OCCO)cc3ccccc23)CC1 (as salt: hydrochloride) [Example 18, 3-[2-(2-hydroxyethoxy)phenyl]-1-(4-ethylpiperazin-1-yl)isoquinoline hydrochloride] |
| 126 to 127 °C | CCN1CCN(c2nc(-c3ccc(O[C@@H](C)CO)cc3)cc3ccsc23)CC1 (as salt: hydrochloride) [Example 438, 7-(4-ethylpiperazin-1-yl)-5-[4-(1-methyl-2-hydroxyethoxy)phenyl]thieno[2,3-c]pyridine dihydrochloride] |
| 165 °C | CCN1CCN(c2nc(-c3ccc(N4CCC(OC)CC4)cc3)cc3ccccc23)CC1 (as salt: hydrochloride) [Example 98, 1-(4-Ethylpiperazin-1-yl)-3-[4-(4-methoxypiperidin-1-yl)phenyl]isoquinoline Trihydrochloride] |
| 164 to 166 °C | CCN1CCN(c2nc(-c3ccc(C4=CCC(O)CC4)cc3)cc3ccccc23)CC1 (stereo not drawn) (as salt: hydrochloride) [Example 64, 3-[4-(4-Hydroxy-1-Cyclohexen-1-Yl)Phenyl]-1-(4-Ethylpiperazin-1-Yl)Isoquinoline Hydrochloride] |
| 124 to 125 °C | CCN1CCN(c2nc(-c3ccc(OCCO)nc3)cc3ccsc23)CC1 (as salt: oxalate) [Example 268, 5-[2-(2-hydroxyethoxy)pyridin-5-yl]-7-(4-ethylpiperazin-1-yl)thieno[2,3-c]pyridine Oxalate] |
| 222 to 224 °C (dec.) | CCN1CCN(c2nc(-c3ccc(S(=O)(=O)NCCOC)cc3)cc3ccccc23)CC1 (as salt: hydrochloride) [Example 354, 1-(4-ethylpiperazin-1-yl)-3-{4-[N-(2-methoxyethyl)sulfamoyl]phenyl}isoquinoline dihydrochloride] |
| 132 to 135 °C | CCN1CCN(c2nc(-c3cccc(OCCO)c3)cc3ccsc23)CC1 (as salt: hydrochloride) [Example 258, 7-(1-ethylpiperazin-4-yl)-5-[3-(2-hydroxyethoxy)phenyl]thieno[2,3-c]pyridine Dihydrochloride] |
| 158 to 159.5 °C | CCN1CCN(c2nc(-c3ccc(S(=O)(=O)NC4CC4)cc3)cc3ccccc23)CC1 (as salt: hydrochloride) [Example 363, 1-(4-ethylpiperazin-1-yl)-3-[4-(N-cyclopropylsulfamoyl)phenyl]isoquinoline dihydrochloride] |
| 126 to 128 °C | CCCC(=O)NCc1ccc(-c2cc3ccccc3c(N3CCN(CC)CC3)n2)cc1 (as salt: hydrochloride) [Example 86, 3-(4-Propylcarbonylaminomethylphenyl)-1-(4-ethylpiperazin-1-yl)isoquinoline Hydrochloride] |
| 131 to 135 °C | CCN1CCN(c2nc(-c3ccc(OC)cc3)cc3cc(F)ccc23)CC1 (as salt: hydrochloride) |

| Structure (SMILES) | melting point |
| --- | --- |
| CCN1CCN(c2nc(-c3ccc(C(C)(C)CCO)cc3)cc3ccsc23)CC1 (as salt: hydrochloride) [Example 443, 7-(4-ethylpiperazin-1-yl)-5-[4-(3-hydroxy-1,1-dimethylpropyl)phenyl]thieno[2,3-c]pyridine dihydrochloride] | 125.5 to 127.5 °C |
| CCN1CCN(c2nc(-c3ccnc(OC)c3)cc3ccccc23)CC1 (as salt: hydrochloride) [Example 405, 1-(4-ethylpiperazin-1-yl)-3-(2-methoxypyridin-4-yl)isoquinoline] | 174 to 176 °C |
| CCNC(=O)Oc1ccc(-c2cc3ccccc3c(N3CCN(CC)CC3)n2)cc1 (as salt: hydrochloride) [Example 59] | 146 to 150 °C |
| CCN1CCN(c2nc(-c3ccc(C(O)CC(C)(C)O)cc3)cc3ccccc23)CC1 (stereo not drawn) (as salt: hydrochloride) [Example 25, 3-[4-(1,3-dihydroxy-3-methylbutyl)phenyl]-1-(4-ethylpiperazin-1-yl)isoquinoline] | 190 to 192 °C |
